In patent US8481740B2, “Imidazo[1,2 a] pyridine-6-carboxamide derivatives, their use for the treatment of colon cancer and their method of manufacture” (University of the Witwatersrand, Johannesburg, priority 2009, dated 2013):
Like-named read-outs stand apart in the source and are kept apart here.

Experiments:
white blood cells = assay: MTT cell viability assay, white blood cells; format: cell-based
Method: Cell viability was determined by the MTT assay after the white blood cells were exposed to the novel compounds for 24 hours at an initial concentration of 100 μM. Camptothecin was used as a positive control for cytotoxicity.

caspase 3 in HT-29 cells = assay: Caspase 3 colorimetric assay, HT-29 lysates; format: cell-based, human; conditions: for initiation of apoptosis compared with camptothecin: from caspase 3 levels; for time at which high caspase 3 levels were observed / time of maximal caspase 3 expression: time of exposure
Method: (§1) As it is well known that caspases play a vital role in the execution of apoptosis, the level of caspase 3 and caspase 8 enzymatic activity in the cell lysates were determined using a caspase 3 and caspase 8 colorimetric assay kit (FIGS. 3A and B). Maximal caspase 8 expression in HT-29 cells was observed within 2 hours of exposure to all the CDK compounds. […] Maximal caspase 3 expression in the HT-29 cells was observed after 8 hours of exposure to 7 and 13, and 4 hours of exposure to 12. Maximal caspase 8 expression in the HT-29 cells was observed within 2 hours of exposure to 14, 4 and 6, and within 4 hours after exposure to 3. Maximal caspase 3 expression in the HT-29 cells was observed after 2 hours of exposure to 4 and 6, and after 4 hours of exposure to 14 and 3.
(§2) The activation of caspases initiates apoptosis in mammalian cells. Caspase 3 and Caspase 8 were detected using the CPP32 and FLICE colorimetric Assay kits, respectively. The following method (obtained from Biovision research products) was performed.
(§3) The treated HT-29 and Caco-2 cells were harvested and resuspended in 50 μl of chilled cell lysis buffer and incubated on ice for 10 minutes. The cells were centrifuged for 1 minute (10000 g) and the supernatant (cytosolic extract) was transferred to a fresh tube and placed on ice. The protein concentration was assayed using the Biorad assay method. 100-200 μg protein to 50 μl cell lysis buffer was diluted for each assay. 50 μl of 2× Reaction buffer (containing 10 mM DTT) was added to each sample. 5 μl of 4 mM IETD-pNA substrate for Caspase 8 and 5 μl of 4 mM DEVD-pNA substrate for Caspase 3 was added to each sample and incubated at 37° C. for 1-2 hours. The samples were read at 405 nm in the microtiter plate reader. Time dependent studies were performed for protease activity by attaining results 2, 4, 6, 12, and 24 hours after treatment with the compounds.

[1] = system: caspase 3 in Caco-2 cells; assay: Caspase 3 colorimetric assay, Caco-2 lysates; format: cell-based, human; conditions: time of exposure
Method: as §1, §2, §3

HT-29 cell line = assay: MTT cell viability assay, HT-29; format: cell-based, human; conditions: read-out: IC50 (molar concentration that inhibited growth by 50%), 24 hours, 5 μM to 100 μM
Method: (§4) The colon cancer cells were initially exposed to the different imidazo[1,2-a]pyridines compounds at 100 μM (final concentration in the well) at 37° C. for 24 hours using an MTT assay for cell viability quantification.
(§5) The HT-29 and Caco-2 cells were exposed to the novel imidazo[1,2-a]pyridine class of compounds according to the invention in concentrations ranging from 5 μM to 100 μM for 24 hours.
The study made use of two colonic carcinoma cell lines, namely the HT-29 and Caco-2 cell lines. The HT-29 and Caco-2 cell lines were obtained from Highveld Biological, South Africa. Both cell lines were cultured in Dulbecco's Modified Eagles Medium (DMEM) (Highveld Biological, South Africa) and supplemented with 5% heat-inactivated heat-inactivated foetal bovine serum (FBS). 1 ml 10 kU penicillin G/10 mg streptomycin sulphate (pen/strep) (Highveld Biological, South Africa) and 0.4% 100 mM sodium pyruvate per 500 ml DMEM were added after filter sterilisation.
The two colon cancer cells were counted and diluted into fresh media at concentrations of 30 000 cells/well and an aliquot of 180 μl was seeded to each well in a 96-well plate. The plates were then placed in an incubator (37° C., 5% CO2, volume fraction) and the cells were allowed to divide for a period of 24 hours.
The cells were exposed to the different classes of synthetic compounds at 100 μM (final concentration in the well) at 37° C. for 24 hours using an MTT assay for cell viability quantification. After the 24 hour incubation, the plates were removed from the incubator, and an aliquot of 50 μl 0.5% MTT (USB, USA) in 1 mM PBS (pH 7.4) was layered on the media. The plates were incubated for 2 hours at 37° C. The plates were than centrifuged at 3000 rpm (Afrox Sorvall T 6000D) for 5 minutes. Following centrifugation, the medium was very carefully aspirated. Formazan crystals were dissolved in 200 μl DMSO. The absorbance was then read at 540 nm using the Absorbance Labsystems Multiskan MS, version 2.4. The controls used in the assay consisted of i) medium alone without cells, ii) medium with or without the tested compounds and iii) medium with Camptothecin.
Compounds showing cytotoxicity at a concentration of 100 μM were further diluted to obtain an IC50 concentration. All tests were performed in triplicate.

Caco-2 cell line = assay: MTT cell viability assay, Caco-2; format: cell-based; conditions: Homo sapiens, read-out: IC50 (molar concentration that inhibited growth by 50%), 24 hours, 5 μM to 100 μM
Method: as §4, §5
The study made use of two colonic carcinoma cell lines, namely the HT-29 and Caco-2 cell lines. The HT-29 and Caco-2 cell lines were obtained from Highveld Biological, South Africa. Both cell lines were cultured in Dulbecco's Modified Eagles Medium (DMEM) (Highveld Biological, South Africa) and supplemented with 5% heat-inactivated heat-inactivated foetal bovine serum (FBS). […]
The two colon cancer cells were counted and diluted into fresh media at concentrations of 30 000 cells/well and an aliquot of 180 μl was seeded to each well in a 96-well plate. […]
The cells were exposed to the different classes of synthetic compounds at 100 μM (final concentration in the well) at 37° C. for 24 hours using an MTT assay for cell viability quantification. […] The absorbance was then read at 540 nm using the Absorbance Labsystems Multiskan MS, version 2.4. […]

Caco-2 cells = assay: JC-1 mitochondrial membrane potential flow cytometry, Caco-2; format: cell-based, human; conditions: 100 μM, 24 hours
Method: (§6) The dysfunction of the mitochondria is believed to be an important step in the commitment of the cell to apoptosis. To assess whether disruption of the mitochondrial transmembrane potential (Δψ) was involved in the apoptotic action of the novel imidazo[1,2-a]pyridines, the HT-29 and Caco-2 cells were treated for 24 hours with 100 μM of the novel compounds and then analysed by flow cytometry by using the cationic fluorescent dye 5,5′,6,6′-tetrachloro-1,1′,3,3′-tetraethylbenzimidazolcarbocyanine iodide (JC-1) to measure mitochondrial membrane depolarization in intact viable cells.
(§7) When energy is released during the oxidation reactions in the mitochondrial respiratory chain, it is stored as a negative electrochemical gradient across the mitochondrial membrane. Under these situations, the mitochondrial membrane potential (Δψ) is polarized. During the early stages of apoptosis, a collapse of the Δψ which results in a depolarized Δψ, is sometimes noticed. […] The changes in Δψ have also been noticed during necrosis (depolarisation) and cell cycle arrest (hyperpolarisation). Understanding the Δψ and how it alters during apoptosis and necrosis, may assist in determining the function of the mitochondria in these and other cellular processes. […]

caspase 8 in HT-29 cells = assay: Caspase 8 colorimetric assay, HT-29 lysates; format: cell-based, human; conditions: time of exposure
Method: as §1, §2
The treated HT-29 and Caco-2 cells were harvested and resuspended in 50 μl of chilled cell lysis buffer and incubated on ice for 10 minutes. The cells were centrifuged for 1 minute (10000 g) and the supernatant (cytosolic extract) was transferred to a fresh tube and placed on ice. […] The samples were read at 405 nm in the microtiter plate reader. […]

HT-29 cells = conditions: 100 μM, 24 hours
Method: as §6, §7

COc1ccc(-c2nc3ccc(-c4ccccc4)cn3c2Nc2c(C)cccc2C)cc1OC [Compound 14]
White Blood Cell Viability % (white blood cells; 24 h, 100 µM): 77.345 ± 1.005%
initiation of apoptosis compared with camptothecin (caspase 3 in HT-29 cells): earlier stage than camptothecin
time at which high caspase 3 levels were observed (caspase 3 in HT-29 cells): 2 h
time of maximal caspase 3 expression (caspase 3 in HT-29 cells): 4 h
time at which high caspase 3 levels were observed [1]: 2 h

CC[C@@]1(O)C(=O)OCc2c1cc1n(c2=O)Cc2cc3ccccc3nc2-1 [camptothecin, reference compound]
IC50 (HT-29 cell line; Homo sapiens): 9.99 ± 1.41 µM
White Blood Cell Viability % (white blood cells; 100 μM, 24 hours, MTT): 33.782 ± 2.031%
IC50 (Caco-2 cell line): 9.55 ± 2.21 µM

COc1ccc(-c2nc3ccc(Br)cn3c2Nc2c(C)cccc2C)c(OC)c1 [Compound 12]
IC50 (HT-29 cell line; Homo sapiens): 22 ± 1.17 µM
White Blood Cell Viability % (white blood cells; 24 h, 100 µM): 96.311 ± 5.023%
time of maximal caspase 3 expression (caspase 3 in HT-29 cells): 4 h
cells undergoing apoptosis (JC-1), average (Caco-2 cells): 81.91%

COc1ccc(-c2nc3ccc(C)cn3c2Nc2c(C)cccc2C)cc1OC [Compound 3]
White Blood Cell Viability % (white blood cells; 100 µM): 76.176 ± 0.567%
time at which high caspase 3 levels were observed (caspase 3 in HT-29 cells): 4 h
time of maximal caspase 3 expression (caspase 3 in HT-29 cells): 4 h
time of maximal (peak) caspase 8 expression (caspase 8 in HT-29 cells): ≤ 4 h
time at which high caspase 3 levels were observed [1]: 4 h

COc1ccc(-c2nc3ccc(Br)cn3c2Nc2c(C)cccc2C)cc1OC [Compound 6]
White Blood Cell Viability % (white blood cells; 24 h, 100 µM): 83.762 ± 1.389%
initiation of apoptosis compared with camptothecin (caspase 3 in HT-29 cells): earlier stage than camptothecin
time at which high caspase 3 levels were observed (caspase 3 in HT-29 cells): 2 h
time of maximal caspase 3 expression (caspase 3 in HT-29 cells): 2 h
time at which high caspase 3 levels were observed [1]: 2 h

COc1ccc(-c2nc3ccc(C)cn3c2Nc2c(C)cccc2C)c(OC)c1 [Compound 13]
IC50 (HT-29 cell line): 10 ± 2.69 µM
White Blood Cell Viability % (white blood cells; 100 µM): 97.479 ± 1.178%
time of maximal caspase 3 expression (caspase 3 in HT-29 cells): 8 h

NC(=O)c1ccc2nc(-c3ccc(OCc4ccccc4)cc3OCc3ccccc3)c(NC3CCCCC3)n2c1 [Compound 7]
IC50 (HT-29 cell line): 9.2 ± 0.83 µM
White Blood Cell Viability % (white blood cells; 100 µM): 93.834 ± 0.271%
time of maximal caspase 3 expression (caspase 3 in HT-29 cells): 8 h
cells undergoing apoptosis (JC-1) (HT-29 cells): 79.62%
healthy cells remaining after treatment (JC-1) (HT-29 cells): 20.33%

COc1ccc(OC)c(-c2nc3ccc(Br)cn3c2NCc2ccccc2)c1 [Compound 4]
White Blood Cell Viability % (white blood cells; 100 µM): 88.943 ± 1.996%
initiation of apoptosis compared with camptothecin (caspase 3 in HT-29 cells): earlier stage than camptothecin
time at which high caspase 3 levels were observed (caspase 3 in HT-29 cells): 2 h
time of maximal caspase 3 expression (caspase 3 in HT-29 cells): 2 h
time at which high caspase 3 levels were observed [1]: 2 h
